Test results: patent US20010046498A1, “Chimeric prostate-homing peptides with pro-apoptotic activity” (priority 2000, published 2001)
Square brackets hold non-standard residues; d marks the D form. Ends that are not written are not given here. Peptide text beside a SMILES is read from it.

Legend:
in vitro = type: cell-based; conditions: human; monolayer at 100% confluency; scored at 72 hours; means of three independent experiments; read-out: LC50 DMEC Angiostatic
Experimental: (§1) The effect of HPP-1 was assayed on normal human dermal microvessel endothelial cells (DMECs) under the angiogenic conditions of proliferation and cord formation. In addition, the effect of HPP-1 was assayed under the angiostatic condition of a monolayer maintained at 100% confluency (as described below).
(§2) Briefly, dermal microvessel endothelial cells (DMECs) were grown in CADMEC Growth Media™ (Cell Applications, Inc.; San Diego, Calif.). Dermal microvessel endothelial cells were then cultured under three experimental conditions: proliferation, 30% confluency in a growth media supplemented with 500 ng/ml human recombinant vascular endothelial growth factor (VEGF; Pharmingen); no proliferation, 100% confluency in media formulated to maintain a monolayer; and cord formation, 60% confluency (required for induction) in media formulated to induce cord formation. The KS1767 and MDA-MB-435 cells were cultured as described in Arap et al., supra, 1998; Hernier et al., supra, 1994).
(§3) Percent viability and LC50 (Table 1) were determined by apoptotic morphology as described in Ellerby et al., J. Neurosci. 17:6165-6178 (1997). For the percent viability assays, dermal microvessel endothelial cells were treated with 60 μM HPP-1 or control peptide D(KLAKLAK)2. At the indicated time points, cell culture medium was aspirated from adherent cells, and the cells were gently washed once with PBS at 37° C. Subsequently, a 20-fold dilution of the dye mixture (100 μg/ml acridine orange and 100 μg/ml ethidium bromide) in PBS was gently pipetted on the cells, which were viewed on an inverted microscope (Nikon TE 300). […] At least 500 cells were scored for a given time point in each experiment. Percent viability was calculated relative to untreated controls. The LC50 for monolayer, proliferation ([…]), and cord formation were scored at 72 hours.

[1] = Cytotoxicity to eukaryotic cells (lethal concentration for 50% of a cell monolayer); type: cell-based; conditions: human; lethal concentration required to kill 50% of a cell monolayer; read-out: concentration required to kill eukaryotic cells (LC50)
Experimental: (§4) Mild swelling was evident at a concentration of 3 μM, two orders of magnitude less than the concentration required to kill eukaryotic cells (approximately 300 μM), as measured by the lethal concentration required to kill 50% of a cell monolayer (LC50; Table 1).
as §3

rat liver mitochondria = assay: Mitochondrial swelling assay (optical absorbance at 520 nm); type: biochemical
Experimental: Mitochondrial swelling assays were performed as follows. Briefly, rat liver mitochondria were prepared as described in Ellerby et al., J. Neurosci. 17:6165-6178 (1997). Peptides were synthesized at higher than 90% purity by HPLC (DLSLARLATARLAI (SEQ ID NO: 204), Coast Scientific, Inc., San Diego, Calif.; all other peptides, AnaSpec, Inc.). Mitochondria were treated with a concentration of 10 μM D(KLAKLAK)2, 10 μM DLSLARLATARLAI negative control peptide (SEQ ID NO: 204), or 200 μM CA^+2 as a positive control. Peptides were added to mitochondria in a cuvette, and swelling was quantified by measuring the optical absorbance at 520 nm.

[2] = system: caspase-3 processing in rat liver mitochondria suspended in normal cytosolic extract; assay: Mitochondria-dependent cell-free apoptosis (caspase-3 processing immunoblot); type: biochemical; conditions: 100 μM peptide, 2 hours, in the presence of mitochondria
Experimental: The D(KLAKLAK)2 peptide was assayed for the ability to activate mitochondria-dependent apoptosis in a cell-free system composed of normal mitochondria suspended in normal cytosolic extract (Ellerby et al., J. Neurosci. 17:6165-6178 (1997)).
The cell-free apoptosis assays were performed essentially as follows. The cell-free systems were reconstituted as described in Ellerby et al., supra, 1997, and, for mitochondria-dependent reactions, rat liver mitochondria were suspended in normal (non-apoptotic) cytosolic extract prepared from dermal microvessel endothelial cells. After adding peptides at a concentration of 100 μM and incubating for 2 hours at 30° C. or 37° C., mitochondria were removed by centrifugation, and the supernatant analyzed by SDS/PAGE immunoblotting on a 12% gel (Biorad; Hercules, Calif.). Proteins were transferred to PVDF membranes (Biorad) and incubated with anti-caspase-3 antibody (Santa Cruz Biotechnology; Santa Cruz, Calif.), followed by ECL detection (Amersham; Arlington Heights, Ill.).

[3] = system: dermal microvessel endothelial cells; assay: Mitochondrial morphology of proliferating DMECs (MitoTracker Red / DAPI); type: cell-based, human; conditions: 60 μM peptide, 24 hours
Experimental: Mitochondrial morphology of dermal microvessel endothelial cells was assessed in proliferating cells after treatment with 60 μM HPP-1, […]-GG-D(KLAKLAK)2 or untargeted D(KLAKLAK)2 as follows. Dermal microvessel endothelial cells were stained after 24 and 72 hours treatment with peptide by incubation for 30 min at 37° C. with 100 nM mitochondrial stain MitoTracker Red™ (Molecular Probes, Inc., Eugene Oreg.) and 500 nM of the nuclear stain DAPI (Molecular Probes, Inc.). Mitochondria were subsequently visualized using fluorescence microscopy (100×) under an inverted microscope using a triple wavelength filter set (Nikon).

[4] = system: normal human dermal microvessel endothelial cells (DMECs); type: cell-based; design: dose or concentration left out as unconfirmed; conditions: proliferation or cord formation
normal mouse prostate = assay: Prostate-selective apoptosis (TUNEL staining); type: in vivo; conditions: single dose of 250 μg peptide/mouse; 24 hours
Experimental: The ability of the SMSIARL peptide (SEQ ID NO: 207) to deliver a pro-apoptotic peptide, D(KLAKLAK)2, to the prostate was analyzed. Briefly, SMSIARL-GG-D(KLAKLAK)2 chimeric peptide or control material was administered as a single dose of 250 μg peptide/mouse, and TUNEL staining was performed on tissues obtained 24 hours later.

[5] = system: prostate cancer in TRAMP mice; assay: Treatment of TRAMP mice (transgenic prostate cancer); type: in vivo; conditions: 250 μg/dose; 10 mice per group
Experimental: TRAMP mice develop prostate cancer under the influence of a transgene as described in Gingrich et al., supra, 1996. SMSIARL-GG-D(KLAKLAK)2 chimeric peptide was assayed for the ability to suppress cancer development in the TRAMP mice. Treatment was initiated at 12 weeks of age with mice (10 per group) receiving SMSIARL-GG-D(KLAKLAK)2 peptide or control peptide at 250 μg/dose every other week for a total of 10 doses. Four mice, which had no visible tumor, were eliminated from the SMSIARL-GG-D(KLAKLAK)2 group after dying within minutes after the injection.

[6] = system: normal human dermal microvessel endothelial cells (DMECs); assay: in vitro; type: cell-based; conditions: controls and alternative prototype; data not shown
Experimental: as §1, §2, §3

[7] = system: breast carcinoma xenografts; assay: Competition of phage homing by co-injected free peptide
eukaryotic cells = assay: Cytotoxicity to eukaryotic cells (lethal concentration for 50% of a cell monolayer); type: cell-based
Experimental: as §4, §3

[8] = system: human 435 breast carcinoma tumor; assay: In vivo targeting of RGD phage to breast tumor; design: species or system nude mice; conditions: coinjection of 500 μg free peptide
Experimental: Human 435 breast carcinoma cells were inoculated into the mammary fat pad of nude mice. When the tumors attained a diameter of about 1 cm, phage expressing a specific RGD-containing peptide were administered to the tumor bearing mouse. Similar results to those discussed below also were obtained with nude mice bearing tumors formed by implantation of human melanoma C8161 cells or by implantation of mouse B16 melanoma cells.
1×10^9 phage expressing the RGD-containing peptide, […] (SEQ ID NO: 1; see, Koivunen et al., supra, 1995) or control (insertless) phage were injected intravenously (iv) into the mice and allowed to circulate for 4 min. The mice then were snap frozen or perfused through the heart while under anesthesia, and various organs, including tumor, brain and kidney, were removed and the phage present in the organs was quantitated (see U.S. Pat. No. 5,622,699; Pasqualini and Ruoslahti, supra, 1996).

bacteria = conditions: Javadpour et al. 1996; cited from earlier work
prostate = assay: In vivo panning of X7 phage library, prostate versus brain; design: species or system mice; conditions: phage displayed peptide
Experimental: An X7 library was injected into mice, and sequences isolated that were preferentially found in prostate as compared to brain as described in WO 99/46284.

prostate tissue = assay: Prostate homing of SMSIARL phage after intravenous injection; type: in vivo, mice; conditions: coinjection
From the text: Using in vivo screening of a heptapeptide phage library, a prostate-homing peptide has been identified that concentrates in the prostate 35-fold more than in various other tissues.

Molecule: CC(C)C[C@@H](NC(=O)[C@H](N)CCCCN)C(=O)N[C@H](C)C(=O)N[C@H](CCCCN)C(=O)N[C@H](CC(C)C)C(=O)N[C@H](C)C(=O)N[C@H](CCCCN)C(=O)N[C@H](CCCCN)C(=O)N[C@H](CC(C)C)C(=O)N[C@H](C)C(=O)N[C@H](CCCCN)C(=O)N[C@H](CC(C)C)C(=O)N[C@H](C)C(=O)N[C@H](CCCCN)C(=O)O [D(KLAKLAK)2]
- CC50 at 72 h (in vitro): 492 µM
- CC50 at 72 h [1]: ~300 µM
- mitochondrial swelling (rat liver mitochondria; 3 μM peptide): Mild swelling
- mitochondrial swelling (rat liver mitochondria; 10 μM peptide): marked mitochondrial swelling
- caspase-3 processing in cell-free system [2]: characteristic caspase-3 processing the active protease was observed
- mitochondrial morphology [3]: remained morphologically normal
- percent viability with time relative to untreated controls [4]: negligible loss in viability

Molecule: CC[C@H](C)[C@H](NC(=O)[C@H](CO)NC(=O)[C@H](CCSC)NC(=O)[C@@H](N)CO)C(=O)N[C@@H](C)C(=O)N[C@@H](CCCNC(=N)N)C(=O)N[C@@H](CC(C)C)C(=O)NCC(=O)NCC(=O)N[C@H](CCCCN)C(=O)N[C@H](CC(C)C)C(=O)N[C@H](C)C(=O)N[C@H](CCCCN)C(=O)N[C@H](CC(C)C)C(=O)N[C@H](C)C(=O)N[C@H](CCCCN)C(=O)N[C@H](CCCCN)C(=O)N[C@H](CC(C)C)C(=O)N[C@H](C)C(=O)N[C@H](CCCCN)C(=O)N[C@H](CC(C)C)C(=O)N[C@H](C)C(=O)N[C@H](CCCCN)C(=O)O [SMSIARL-GG-D(KLAKLAK)2] (H-SMSIARLGG[dK][dL][dA][dK][dL][dA][dK][dK][dL][dA][dK][dL][dA][dK]-OH)
- apoptosis in other tissues such as testis, kidney or brain (TUNEL) (normal mouse prostate): no evidence of increased apoptosis
- mice dying within minutes after the injection [5]: Four

Molecule: CARAC-GG-D(KLAKLAK)2 [reference compound]
- effect on viability of dermal microvessel endothelial cells, compared with other peptide [6]: results similar to D(KLAKLAK) 2

Molecule: CGRNC-GG-D(KLAKLAK)2 [reference compound]
- effect on viability of dermal microvessel endothelial cells, compared with other peptide [6]: results similar to D(KLAKLAK) 2

Molecule: CNGRC (not fully specified; cysteine pairing not given here)
- effect of co-injected peptide on homing of […] phage [7]: did not inhibit
- effect of co-injected peptide on accumulation of NGR phage in tumor ([7]; phage expressing CNGRCVSGCAGRC): inhibited

Molecule: DLSLARLATARLAI [non-α-helix forming negative control peptide]
- lethality to eukaryotic cells (eukaryotic cells): not lethal
- mitochondrial swelling (rat liver mitochondria; 10 μM peptide): did not induce mitochondrial swelling
- caspase-3 processing in cell-free system [2]: inactive

Molecule: GRGESP
- reduction of phage in the tumor by coinjected free peptide [8]: essentially had no effect

Molecule: KLAKLAKKLAKLAK [synthetic antimicrobial 14-mer of Javadpour et al]
- concentration that kills bacteria relative to concentration required to kill eukaryotic cells (bacteria): two orders of magnitude lower

Molecule: SMSIARL [prostate homing peptide]
- enrichment in prostate as compared to brain (prostate): 34 fold
- effect of coinjected synthetic peptide on prostate-selective phage homing (prostate tissue): inhibited the prostate-selective homing of phage

Molecule: VSFLEYR [prostate homing peptide]
- enrichment in prostate as compared to brain (prostate): 17 fold
